Measurements: ChEMBL document CHEMBL3792360, “Antibacterial activity of Mannich bases derived from 2-naphthols, aromatic aldehydes and secondary aliphatic amines” (2016)
≈ marks a conversion by molar mass, not a printed value.

Legend:
Format in all cases: functional
Escherichia coli [1] = experiment: Antibacterial activity against Escherichia coli ATCC 25922 after 16 to 20 hrs by broth microdilution method
Enterobacter cloacae = experiment: Antibacterial activity against Enterobacter cloacae CIP 103475 after 16 to 20 hrs by broth microdilution method
Citrobacter freundii = experiment: Antibacterial activity against Citrobacter freundii CIP 5732 after 16 to 20 hrs by broth microdilution method
Enterococcus faecalis = experiment: Antibacterial activity against Enterococcus faecalis ATCC 25912 after 16 to 20 hrs by broth microdilution method
Proteus vulgaris = experiment: Antibacterial activity against Proteus vulgaris CIP 104989 after 16 to 20 hrs by broth microdilution method
Klebsiella pneumoniae = experiment: Antibacterial activity against Klebsiella pneumoniae CIP 53153 after 16 to 20 hrs by broth microdilution method
Pseudomonas aeruginosa = experiment: Antibacterial activity against Pseudomonas aeruginosa CIP 82118 after 16 to 20 hrs by broth microdilution method
Escherichia coli [2] = experiment: Antibacterial activity against Escherichia coli ATCC 35218 after 16 to 20 hrs by broth microdilution method
Staphylococcus aureus [3] = experiment: Antibacterial activity against Staphylococcus aureus […] after 16 to 20 hrs by broth microdilution method
Staphylococcus aureus [4] = experiment: Antibacterial activity against methicillin-resistant Staphylococcus aureus ATCC 43300 after 16 to 20 hrs by broth microdilution method

COc1ccc2ccc(O)c(C(c3cccc4ccccc34)N3CCCCC3)c2c1 (stereo not given)
MIC (Escherichia coli [1]): > 512 µg/mL
MIC (Enterobacter cloacae): > 512 µg/mL
MIC (Citrobacter freundii): > 512 µg/mL
MIC (Enterococcus faecalis): > 512 µg/mL
MIC (Proteus vulgaris): > 512 µg/mL
MIC (Klebsiella pneumoniae): > 512 µg/mL
MIC (Pseudomonas aeruginosa): > 512 µg/mL
MIC (Escherichia coli [2]): > 512 µg/mL
MIC (Staphylococcus aureus [3]): > 512 µg/mL
MIC (Staphylococcus aureus [4]): > 512 µg/mL

Oc1ccc2ccccc2c1C(c1ccc(Br)s1)N1CCCCC1 (stereo not given)
MIC (Escherichia coli [1]): > 512 µg/mL
MIC (Enterobacter cloacae): > 512 µg/mL
MIC (Citrobacter freundii): > 512 µg/mL
MIC (Enterococcus faecalis): 16 µg/mL (≈ 39.8 µM)
MIC (Proteus vulgaris): > 512 µg/mL
MIC (Klebsiella pneumoniae): > 512 µg/mL
MIC (Pseudomonas aeruginosa): > 512 µg/mL
MIC (Escherichia coli [2]): > 512 µg/mL
MIC (Staphylococcus aureus [3]): 8 µg/mL (≈ 19.9 µM)
MIC (Staphylococcus aureus [4]): 16 µg/mL (≈ 39.8 µM)

Cc1cc(C)cc(C(c2c(O)ccc3ccccc23)N2CCC(C)CC2)c1 (stereo not given)
MIC (Escherichia coli [1]): > 512 µg/mL
MIC (Enterobacter cloacae): > 512 µg/mL
MIC (Citrobacter freundii): > 512 µg/mL
MIC (Enterococcus faecalis): > 512 µg/mL
MIC (Proteus vulgaris): > 512 µg/mL
MIC (Klebsiella pneumoniae): > 512 µg/mL
MIC (Pseudomonas aeruginosa): > 512 µg/mL
MIC (Escherichia coli [2]): > 512 µg/mL
MIC (Staphylococcus aureus [3]): > 512 µg/mL
MIC (Staphylococcus aureus [4]): > 512 µg/mL

COc1ccc2ccc(O)c(C(c3cccs3)N3CCCCC3)c2c1 (stereo not given)
MIC (Escherichia coli [1]): > 512 µg/mL
MIC (Enterobacter cloacae): > 512 µg/mL
MIC (Citrobacter freundii): > 512 µg/mL
MIC (Enterococcus faecalis): 32 µg/mL (≈ 90.5 µM)
MIC (Proteus vulgaris): > 512 µg/mL
MIC (Klebsiella pneumoniae): > 512 µg/mL
MIC (Pseudomonas aeruginosa): > 512 µg/mL
MIC (Escherichia coli [2]): > 512 µg/mL
MIC (Staphylococcus aureus [3]): 16 µg/mL (≈ 45.3 µM)
MIC (Staphylococcus aureus [4]): 16 µg/mL (≈ 45.3 µM)

COc1ccc2ccc(O)c(C(c3cccc4ccccc34)N3CCC(C)CC3)c2c1 (stereo not given)
MIC (Escherichia coli [1]): > 512 µg/mL
MIC (Enterobacter cloacae): > 512 µg/mL
MIC (Citrobacter freundii): > 512 µg/mL
MIC (Enterococcus faecalis): > 512 µg/mL
MIC (Proteus vulgaris): > 512 µg/mL
MIC (Klebsiella pneumoniae): > 512 µg/mL
MIC (Pseudomonas aeruginosa): > 512 µg/mL
MIC (Escherichia coli [2]): > 512 µg/mL
MIC (Staphylococcus aureus [3]): > 512 µg/mL
MIC (Staphylococcus aureus [4]): > 512 µg/mL

Oc1ccc2cc(Br)ccc2c1C(c1cccs1)N1CCCCC1 (stereo not given)
MIC (Escherichia coli [1]): > 512 µg/mL
MIC (Enterobacter cloacae): > 512 µg/mL
MIC (Citrobacter freundii): > 512 µg/mL
MIC (Enterococcus faecalis): 16 µg/mL (≈ 39.8 µM)
MIC (Proteus vulgaris): > 512 µg/mL
MIC (Klebsiella pneumoniae): > 512 µg/mL
MIC (Pseudomonas aeruginosa): > 512 µg/mL
MIC (Escherichia coli [2]): > 512 µg/mL
MIC (Staphylococcus aureus [3]): 8 µg/mL (≈ 19.9 µM)
MIC (Staphylococcus aureus [4]): 8 µg/mL (≈ 19.9 µM)

Oc1ccc2ccccc2c1C(c1cccs1)N1CCCCC1 (stereo not given)
MIC (Escherichia coli [1]): > 512 µg/mL
MIC (Enterobacter cloacae): > 512 µg/mL
MIC (Citrobacter freundii): > 512 µg/mL
MIC (Enterococcus faecalis): 32 µg/mL (≈ 98.9 µM)
MIC (Proteus vulgaris): > 512 µg/mL
MIC (Klebsiella pneumoniae): > 512 µg/mL
MIC (Pseudomonas aeruginosa): > 512 µg/mL
MIC (Escherichia coli [2]): > 512 µg/mL
MIC (Staphylococcus aureus [3]): 16 µg/mL (≈ 49.5 µM)
MIC (Staphylococcus aureus [4]): 8 µg/mL (≈ 24.7 µM)

Oc1ccc2ccccc2c1C(c1cccs1)N1CCCC1 (stereo not given)
MIC (Escherichia coli [1]): > 512 µg/mL
MIC (Enterobacter cloacae): > 512 µg/mL
MIC (Citrobacter freundii): > 512 µg/mL
MIC (Enterococcus faecalis): 32 µg/mL (≈ 103 µM)
MIC (Proteus vulgaris): > 512 µg/mL
MIC (Klebsiella pneumoniae): > 512 µg/mL
MIC (Pseudomonas aeruginosa): > 512 µg/mL
MIC (Escherichia coli [2]): > 512 µg/mL
MIC (Staphylococcus aureus [3]): 32 µg/mL (≈ 103 µM)
MIC (Staphylococcus aureus [4]): 32 µg/mL (≈ 103 µM)

CC1CCN(C(c2ccc(F)cc2)c2c(O)ccc3ccccc23)CC1 (stereo not given)
MIC (Escherichia coli [1]): > 512 µg/mL
MIC (Enterobacter cloacae): > 512 µg/mL
MIC (Citrobacter freundii): > 512 µg/mL
MIC (Enterococcus faecalis): > 512 µg/mL
MIC (Proteus vulgaris): > 512 µg/mL
MIC (Klebsiella pneumoniae): > 512 µg/mL
MIC (Pseudomonas aeruginosa): > 512 µg/mL
MIC (Escherichia coli [2]): > 512 µg/mL
MIC (Staphylococcus aureus [3]): > 512 µg/mL
MIC (Staphylococcus aureus [4]): > 512 µg/mL

COc1ccc2ccc(O)c(C(c3ccccn3)N3CCC(C)CC3)c2c1 (stereo not given)
MIC (Escherichia coli [1]): > 512 µg/mL
MIC (Enterobacter cloacae): > 512 µg/mL
MIC (Citrobacter freundii): > 512 µg/mL
MIC (Enterococcus faecalis): > 512 µg/mL
MIC (Proteus vulgaris): > 512 µg/mL
MIC (Klebsiella pneumoniae): > 512 µg/mL
MIC (Pseudomonas aeruginosa): > 512 µg/mL
MIC (Escherichia coli [2]): > 512 µg/mL
MIC (Staphylococcus aureus [3]): > 512 µg/mL
MIC (Staphylococcus aureus [4]): > 512 µg/mL

CC1CCN(C(c2cccc(Cl)c2)c2c(O)ccc3cc(Br)ccc23)CC1 (stereo not given)
MIC (Escherichia coli [1]): > 512 µg/mL
MIC (Enterobacter cloacae): > 512 µg/mL
MIC (Citrobacter freundii): > 512 µg/mL
MIC (Enterococcus faecalis): > 512 µg/mL
MIC (Proteus vulgaris): > 512 µg/mL
MIC (Klebsiella pneumoniae): > 512 µg/mL
MIC (Pseudomonas aeruginosa): > 512 µg/mL
MIC (Escherichia coli [2]): > 512 µg/mL
MIC (Staphylococcus aureus [3]): > 512 µg/mL
MIC (Staphylococcus aureus [4]): > 512 µg/mL

CC1CCN(C(c2ccc(Br)s2)c2c(O)ccc3ccccc23)CC1 (stereo not given)
MIC (Escherichia coli [1]): > 512 µg/mL
MIC (Enterobacter cloacae): > 512 µg/mL
MIC (Citrobacter freundii): > 512 µg/mL
MIC (Enterococcus faecalis): 16 µg/mL (≈ 38.4 µM)
MIC (Proteus vulgaris): > 512 µg/mL
MIC (Klebsiella pneumoniae): > 512 µg/mL
MIC (Pseudomonas aeruginosa): > 512 µg/mL
MIC (Escherichia coli [2]): > 512 µg/mL
MIC (Staphylococcus aureus [3]): 8 µg/mL (≈ 19.2 µM)
MIC (Staphylococcus aureus [4]): 16 µg/mL (≈ 38.4 µM)

CC1CCN(C(c2cccs2)c2c(O)ccc3ccccc23)CC1 (stereo not given)
MIC (Escherichia coli [1]): > 512 µg/mL
MIC (Enterobacter cloacae): > 512 µg/mL
MIC (Citrobacter freundii): > 512 µg/mL
MIC (Enterococcus faecalis): 16 µg/mL (≈ 47.4 µM)
MIC (Proteus vulgaris): > 512 µg/mL
MIC (Klebsiella pneumoniae): > 512 µg/mL
MIC (Pseudomonas aeruginosa): > 512 µg/mL
MIC (Escherichia coli [2]): > 512 µg/mL
MIC (Staphylococcus aureus [3]): 8 µg/mL (≈ 23.7 µM)
MIC (Staphylococcus aureus [4]): 8 µg/mL (≈ 23.7 µM)

Oc1ccc2ccccc2c1C(c1cccc2ccccc12)N1CCCCC1 (stereo not given)
MIC (Escherichia coli [1]): > 512 µg/mL
MIC (Enterobacter cloacae): > 512 µg/mL
MIC (Citrobacter freundii): > 512 µg/mL
MIC (Enterococcus faecalis): > 512 µg/mL
MIC (Proteus vulgaris): > 512 µg/mL
MIC (Klebsiella pneumoniae): > 512 µg/mL
MIC (Pseudomonas aeruginosa): > 512 µg/mL
MIC (Escherichia coli [2]): > 512 µg/mL
MIC (Staphylococcus aureus [3]): > 512 µg/mL
MIC (Staphylococcus aureus [4]): > 512 µg/mL

CN1CCN(C(c2cccs2)c2c(O)ccc3ccccc23)CC1 (stereo not given)
MIC (Escherichia coli [1]): > 512 µg/mL
MIC (Enterobacter cloacae): > 512 µg/mL
MIC (Citrobacter freundii): > 512 µg/mL
MIC (Enterococcus faecalis): 32 µg/mL (≈ 94.5 µM)
MIC (Proteus vulgaris): > 512 µg/mL
MIC (Klebsiella pneumoniae): > 512 µg/mL
MIC (Pseudomonas aeruginosa): > 512 µg/mL
MIC (Escherichia coli [2]): > 512 µg/mL
MIC (Staphylococcus aureus [3]): 32 µg/mL (≈ 94.5 µM)
MIC (Staphylococcus aureus [4]): 32 µg/mL (≈ 94.5 µM)
